Experimental data from US20140044656A1, “NOVEL USE” (DSM IP ASSETS B.V., priority 2011, published 2014).

Assays:
[1] = tested on: Normal human melanocytes NHM (HEMn-MP, Clonetics); assay: Quantification of melanin synthesis in cell culture; type: cell-based; conditions: for total melanin content versus control (100%): three days, absorbance at 405 nm
Experimental: Normal human melanocytes NHM (HEMn-MP, Clonetics) were seeded in 96 well cell culture plates and grown to sub-confluence for two days in a mixture of M2-Medium (Clonetics) and Medium (Promocell). Culture medium was exchanged with Culture Medium containing Steviol (96%) and melanogenesis progressed for another three days at 37° C. with another medium exchange on day two. Including cell layer and culture supernatant the total melanin was extracted using 1.7M KOH with vigorous shaking at RT. The total melanin content was determined at 405 nm in an absorbance plate reader versus a control (100%)

[2] = Discoloration experiment (Pantone Color Index of aqueous solution at different pH); type: physicochemical; conditions: for Pantone Index: 1% solution in water
Experimental: Steviol (87%) was dissolved at 1 wt.-% in water and the pH adjusted to different values as shown below. At pH 9, the solution turns brown within 1 day. However, the more acidic the pH, the less discoloration was observed. The color was determined visually using the Pantone Color Index. Pantone Colours index of 1% Steviol solution in water at different pH: […]

C=C1C[C@@]23CC[C@H]4[C@@](C)(CCC[C@@]4(C)C(=O)O)[C@@H]2CC[C@]1(O)C3 [Steviol, steviol]
effect on the production of melanin in human melanocytes ([1]; 0.25-1 microM): clear dose dependent positive effect | total melanin content versus control (100%) ([1]; 0.25 microM): 109% | total melanin content versus control (100%) ([1]; 0.5 micro M): 124% | total melanin content versus control (100%) ([1]; 1 micro M): 130% | potency relative to the positive control Glycyrrhizin ([1]; melanin production in human melanocytes): about 1000 times | Pantone Index ([2]; pH 6, visual): 155 | Pantone Index ([2]; pH 6.5, visual): 155 | Pantone Index ([2]; pH 7, visual): 158 | Pantone Index ([2]; pH 9, visual): 160 | time until solution turns brown ([2]; 1 wt.-% in water, pH 9): ≤ 1 days
